Experimental data published in publication PMC3448645, “Functional Studies of ssDNA Binding Ability of MarR Family Protein TcaR from Staphylococcus epidermidis” (PLoS ONE, 2012).

How the values were obtained:
TcaR [1] = molecular target: T1, TcaR (Staphylococcus epidermidis, UniProt Q5HLN6); assay: EMSA, inhibition of TcaR-GC33 ssDNA complex; also SPR; format: binding; conditions: 1 uM GC33 ssDNA, 2 uM TcaR dimer, 2 or 20 uM antibiotic, pH 8.0, room temperature; SPR: 64 nM TcaR, 640 nM antibiotic, pH 7.5, 25 °C
T1 construct: homodimer

TcaR [2] = molecular target: T1, TcaR; assay: EMSA, inhibition of TcaR-GC33 ssDNA complex; format: binding; conditions: 1 uM GC33 ssDNA, 2 uM TcaR dimer, 2 or 20 uM antibiotic, pH 8.0, room temperature

Row | Compound | EMSA, inhibition of TcaR-GC33 ssDNA complex; also SPR (TcaR [1]) | EMSA, inhibition of TcaR-GC33 ssDNA complex (TcaR [2])
1 | NC[C@H]1O[C@H](O[C@H]2[C@H](O)[C@@H](O[C@H]3O[C@H](CO)[C@@H](O)[C@H](N)[C@H]3O)[C@H](N)C[C@@H]2N)[C@H](O)[C@@H](O)[C@@H]1O [kanamycin] | kanamycin, chloramphenicol and gentamycin interfered with the ssDNA (GC33) binding activity of TcaR | 
2 | O=C(N[C@H](CO)[C@H](O)c1ccc([N+](=O)[O-])cc1)C(Cl)Cl [chloramphenicol] |  | kanamycin, chloramphenicol and gentamycin interfered with the ssDNA (GC33) binding activity of TcaR
